The target of this assay is T1, human Ox2R (Homo sapiens, UniProt O43614).
T1 construct: The gene encoding hOx2R was subcloned into the expression plasmid pcDNA5/FRT/TO; expressed in transfected cells; host or cells: CHO Flp-In cells (pcDNA5/FRT/TO with pOG44 Flp recombinase vector, hygromycin B selection)
T1 sequence (O43614 1-444): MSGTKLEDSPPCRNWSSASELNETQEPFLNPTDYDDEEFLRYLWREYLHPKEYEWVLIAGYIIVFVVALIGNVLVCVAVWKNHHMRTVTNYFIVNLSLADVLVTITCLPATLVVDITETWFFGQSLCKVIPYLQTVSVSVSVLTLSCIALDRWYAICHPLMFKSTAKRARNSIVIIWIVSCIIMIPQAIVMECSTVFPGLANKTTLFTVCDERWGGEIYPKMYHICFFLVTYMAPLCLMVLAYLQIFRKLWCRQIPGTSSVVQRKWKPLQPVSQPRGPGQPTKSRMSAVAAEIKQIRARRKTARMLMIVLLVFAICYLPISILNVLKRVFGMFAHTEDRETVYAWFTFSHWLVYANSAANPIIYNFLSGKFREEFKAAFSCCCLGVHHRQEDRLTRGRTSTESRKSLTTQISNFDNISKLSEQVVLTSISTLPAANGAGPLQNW
Briefly: Measurement of OX2R agonist activity (cell-based calcium release assay). The note with it: hOx2R-CHO Flp-In cells, n≥2 tests; for pEC50: intracellular calcium, read-out: EC50; for Emax: read-out: Emax (%). The text has this: Measurement of OX2R Agonist Activity
The Ox2R has a broad signaling profile and couple to a range of different Gα-proteins. The cell-based calcium release assay is primarily assessing signaling through the Gαq signaling pathway, which promotes calcium mobilization via inositol triphosphate production upon activation of Ox2R.
A CHO Flp-In cell-line stably expressing the human Ox2R (hOx2R-CHO Flp-In) was established as follows: The gene encoding hOx2R was subcloned into the expression plasmid pcDNA5/FRT/TO and then transfected into CHO Flp-In cells together with the Flp recombinase vector, pOG44. Cells were cultured in growth medium: Ham's F12 (Gibco), 10% fetal bovine serum (Gibco) and 100 U/mL penicillin-streptomycin (Gibco) supplemented with hygromycin B (Thermo Fisher Scientific) as selection marker at 37° C. in the presence of 5% CO2.
To prepare the hOx2R-CHO FlpIn cells for calcium release assay, the cells were suspended in growth medium and seeded in black, clear-bottomed 384-well plates (Corning) at 10,000 cells/well. The plated cells were grown overnight at 37° C. and 5% CO2. The following day, the media was removed, and the cells were incubated with assay buffer (HBSS with 20 mM HEPES, pH 7.4) containing 2.5 mM probenecid (Thermo Fisher Scientific), 10 mM CaCl2, 0.1% pluronic F68 (Gibco) and 1× calcium-4 dye (Molecular Devices) for 1 h at 37° C. and 5% CO2. After incubation, cells were allowed to equilibrate at room temperature for 15 minutes and then loaded into FDSS7000Ex system (Hamamatsu Photonics) together with a plate containing test compounds serially diluted in assay buffer. Cells were stimulated with test compounds (online injection) and the agonist activity was determined as an increase in intracellular calcium concentration measured from the ratio of fluorescence emission at 542 nm by excitation at 480 nm. The agonist response for each applied concentration was assessed as the ratio: maximum fluorescence/average pre-stimulated fluorescence and was normalized to responses from assay buffer alone (0% response) and 10 μM Danavorexton (100% response). EC50 and Emax values were calculated from concentration-response curves by using Genedata Screener software.

Where [1] appears, read: normalized to assay buffer (0%) and 10 μM Danavorexton (100%).

pEC50: −log10 of the molar value.

For the compound `CS(=O)(=O)N[C@H]1CC[C@@]2(Cc3ccc(F)c(c3)-c3ccc(F)c(F)c3OCc3ccnc2n3)C1` [Example 87, N-[(1′S,15R)-5,6,20-trifluorospiro[8-oxa-13,22-diazatetracyclo[15.3.1.110,14.02,7]docosa-1(21),2,4,6,10,12,14(22),17,19-nonaene-15,3′-cyclopentane]-1′-yl]methanesulfonamide], the pEC50 was 8.70. In addition, the Emax under setting [1] worked out at 100%.
The matching figures for `CS(=O)(=O)N[C@H]1CC[C@@]2(Cc3ccc(F)c(c3)-c3cccc(Cl)c3OCc3coc2n3)C1` [Example 20, N-[(1′S,14R)-6-chloro-19-fluoro-spiro[8,12-dioxa-21-azatetracyclo[14.3.1.110,13.02,7]henicosa-1(19),2,4,6,10,13(21),16(20),17-octaene-14,3′-cyclopentane]-1′-yl]methanesulfonamide]: 9.48 and 97%.
Turning to `CS(=O)(=O)N[C@@H]1C[C@]2(Cc3ccc(F)c(c3)-c3cc(F)cc(F)c3OCc3ccnc2n3)[C@H]2C[C@@H]12` [Example 119, N-[(1′R,2′R,5′S,15R)-4,6,20-trifluorospiro[8-oxa-13,22-diazatetracyclo[15.3.1.110,14.02,7]docosa-1(21),2,4,6,10,12,14(22),17,19-nonaene-15,4′-bicyclo[3.1.0]hexane]-2′-yl]methanesulfonamide], the pEC50 is 9.28. In addition, the Emax under setting [1] amounted to 96%.
The matching figures for `CS(=O)(=O)N[C@H]1CC[C@@]2(Cc3cc(ncc3F)-c3cccc(F)c3OCc3coc2n3)C1` [Example 105, N-[(1′S,14R)-6,17-difluorospiro[8,12-dioxa-19,21-diazatetracyclo[14.3.1.110,13.02,7]henicosa-1(20),2,4,6,10,13(21),16,18-octaene-14,3′-cyclopentane]-1′-yl]methanesulfonamide]: 8.21 and 97%.
With `Cc1oc2nc1COc1ccccc1-c1cccc(c1)C[C@@]21CC[C@H](NS(C)(=O)=O)C1` [Example 68, N-[(1′S,14R)-11-methylspiro[8,12-dioxa-21-azatetracyclo[14.3.1.110,13.02,7]henicosa-1(19),2,4,6,10,13(21),16(20),17-octaene-14,3′-cyclopentane]-1′-yl]methanesulfonamide], the negative logarithm of the EC50 (pEC50) was 8.82. The maximal effect (Emax) under setting [1] was determined as 98%.
Turning to `CS(=O)(=O)N[C@H]1CC[C@@]2(CO[C@H]3CC[C@H](CC3)c3cccc(c3)OCc3cnc2o3)C1` [Example 73, N-[(1s,1′S,13S,16s)-spiro[7,15,21-trioxa-11-azatetracyclo[14.2.2.12,6.19,12]docosa-2,4,6(22),9,11-pentaene-13,3′-cyclopentane]-1′-yl]methanesulfonamide], the pEC50 was 9.03. Further, under setting [1], the maximum response (Emax) turned out to be 98%.
As for `CS(=O)(=O)N[C@H]1CC[C@@]2(CO[C@H]3CC[C@H](CC3)c3cccc(c3)OCc3coc2n3)C1` [Example 41, N-[(1s,1′S,13S,16s)-spiro[7,11,15-trioxa-21-azatetracyclo[14.2.2.12,6.19,12]docosa-2,4,6(22),9,12(21)-pentaene-13,3′-cyclopentane]-1′-yl]methanesulfonamide], the pEC50 is 9.72. The Emax under setting [1] came out at 98%.
Consider `CS(=O)(=O)N[C@H]1CC[C@@]2(Cc3cc(c(F)cc3F)-c3cccc(F)c3OCc3nc2ns3)C1` [Example 111, N-[(1′S,14R)-6,17,19-trifluorospiro[8-oxa-11-thia-12,21-diazatetracyclo[14.3.1.110,13.02,7]henicosa-1(19),2,4,6,10(21),12,16(20),17-octaene-14,3′-cyclopentane]-1′-yl]methanesulfonamide], for which the pEC50 is 9.01. For the same compound, the Emax under setting [1] is 96%.
As for `O=S(=O)(N[C@H]1CC[C@@]2(Cc3ccc(F)c(c3)-c3ccc(F)c(F)c3OCc3coc2n3)C1)C1CC1` [Example 34, N-[(1′S,14R)-5,6,19-trifluorospiro[8,12-dioxa-21-azatetracyclo[14.3.1.110,13.02,7]henicosa-1(19),2,4,6,10,13(21),16(20),17-octaene-14,3′-cyclopentane]-1′-yl]cyclopropanesulfonamide], the pEC50 is 9.10. The Emax under setting [1] worked out at 98%.
`CS(=O)(=O)N[C@H]1CC[C@]2(CC1)Cc1cccc(c1)-c1cccc(F)c1OCc1coc2n1` [Example 75, N-(cis)-(6-fluorospiro[8,12-dioxa-21-azatetracyclo[14.3.1.110,13.02,7]henicosa-1(20),2,4,6,10,13(21),16,18-octaene-14,4′-cyclohexane]-1′-yl)methanesulfonamide]: the pEC50 was 8.85. Also, the maximal effect (Emax) under setting [1] came out at 100%.
The matching figures for `CS(=O)(=O)N[C@@H]1C[C@]2(Cc3ccc(F)c(c3)-c3cccc(F)c3OCc3ccnc2n3)[C@H]2C[C@@H]12` [Example 118, N-[(1′R,2′R,5′S,15R)-6,20-difluorospiro[8-oxa-13,22-diazatetracyclo[15.3.1.110,14.02,7]docosa-1(21),2,4,6,10,12,14(22),17,19-nonaene-15,4′-bicyclo[3.1.0]hexane]-2′-yl]methanesulfonamide]: 10.00 and 100%.
The matching figures for `CS(=O)(=O)N[C@H]1CC[C@@]2(Cc3ccc(F)c(c3)-c3ccc(F)c(F)c3OCc3coc2n3)C1` [Example 14, N-[(1′S,14R)-5,6,19-trifluorospiro[8,12-dioxa-21-azatetracyclo[14.3.1.110,13.02,7]henicosa-1(19),2,4,6,10,13(21),16(20),17-octaene-14,3′-cyclopentane]-1′-yl]methanesulfonamide]: 9.21 and 97%.
Turning to `CS(=O)(=O)N[C@H]1CC[C@@]2(Cc3cc(c(F)cc3Cl)-c3cccc(F)c3OCc3coc2n3)C1` [Example 32, N-[(1′S,14R)-17-chloro-6,19-difluoro-spiro[8,12-dioxa-21-azatetracyclo[14.3.1.110,13.02,7]henicosa-1(19),2,4,6,10,13(21),16(20),17-octaene-14,3′-cyclopentane]-1′-yl]methanesulfonamide], the pEC50 is 9.55. In addition, the Emax under setting [1] is 98%.
The matching figures for `CS(=O)(=O)N[C@H]1CC[C@@]2(Cc3cc(ccc3F)-c3ccccc3OCc3coc2n3)C1` [Example 10, N-[(1′S,14R)-17-fluorospiro[8,12-dioxa-21-azatetracyclo[14.3.1.110,13.02,7]henicosa-1(19),2,4,6,10,13(21),16(20),17-octaene-14,3′-cyclopentane]-1′-yl]methanesulfonamide]: 8.82 and 100%.
On to `CCS(=O)(=O)N[C@H]1CC[C@@]2(Cc3ccc(F)c(c3)-c3ccc(F)c(F)c3OCc3coc2n3)C1` [Example 35, N-[(1′S,14R)-5,6,19-trifluorospiro[8,12-dioxa-21-azatetracyclo[14.3.1.110,13.02,7]henicosa-1(19),2,4,6,10,13(21),16(20),17-octaene-14,3′-cyclopentane]-1′-yl]ethanesulfonamide], for which the pEC50 is 8.85. Moreover, the Emax under setting [1] was determined as 100%.
For the compound `C[C@H]1C[C@H](NS(C)(=O)=O)C[C@]12Cc1ccc(F)c(c1)-c1cccc(F)c1OCc1coc2n1` [Example 60, N-[(1′S,4′S,14R)-6,19-difluoro-4′-methyl-spiro[8,12-dioxa-21-azatetracyclo[14.3.1.110,13.02,7]henicosa-1(19),2,4,6,10,13(21),16(20),17-octaene-14,3′-cyclopentane]-1′-yl]methanesulfonamide or N-[(1′R,4′R,14S)-6,19-difluoro-4′-methyl-spiro[8,12-dioxa-21-azatetracyclo[14.3.1.110,13.02,7]henicosa-1(19),2,4,6,10,13(21),16(20),17-octaene-14,3′-cyclopentane]-1′-yl]methanesulfonamide], the pEC50 is 9.48. Also, the “Emax (%)” value under setting [1] is 100%.

Broadly, the pEC50 is −log10 of the EC50, conventionally taken in molar units. As usually defined, the Emax is the greatest response seen or fitted, relative to the assay's reference.

(Values after patent publication US12590106B2, “Spiromacrocyclic orexin 2 receptor agonists” (H. Lundbeck A/S, priority 2023, dated 2026).)
